Values joined by “and” are separate entries in the source; they are usually repeats but may differ in a detail not shown here. Identical values can stand only once. Like-named read-outs stand apart in the source and are kept apart here.

Data on 37 compounds can be found in patent US5164314A, “Microbiologically-prepared diacetyl reductase” (priority 1988, dated 1992).

Series [1] has as its system diacetyl reductase. The experiment in a line: Acetoin oxidation reaction with NAD as coenzyme. Format: biochemical, Lactobacillus kefir. As to conditions: pH and concentrations altered.
The test system of series [2] is Lc. enzyme (diacetyl reductase). Briefly: Effect of various metal cations and inhibitors on the diacetyl-reducing activity. To be noted: for Inhibition of the enzyme (in words): 1 mM concentration. In kind it is biochemical, Lactobacillus kefir. On the procedure: In order to determine the behavior of the diacetyl-reducing activity in the presence of metal cations and inhibitors, the appropriate substances were added in a concentration of 1 mM to the assay, and the activities were determined after an incubation time of 5 min at 20° C. The absorption characteristics of diacetyl made it necessary to determine two blanks, one measured with replacement of enzyme solution, and the other measured by replacing substrate solution by buffer.

Series [3] has as its system diacetyl reductase E1. Briefly: Substrate spectrum and KM determination, enzyme E1. Format: biochemical, Lactobacillus kefir. Further details: Rel. Vmax E1: unit not given here.
For series [4], the system named is diacetyl reductase E1. Briefly: Stereospecificity by oxidation of D(-)- and L(+)-lactic acid, enzyme E1. To be noted: NAD+, potassium phosphate buffer pH 7.0. Format: biochemical, Lactobacillus kefir. The source says: (§1) But since the enzyme can also reduce pyruvate (as shown in Table 5), this provides a method of establishing the stereospecificity on the basis of the pair of substrates (+)- and (-)-lactate. In assay mixtures with D(-)- or L(+)-lactic acid and NAD^+ in potassium phosphate buffer (pH 7.0), the two enzymes E1 and E2 were able to convert D(-)-lactic acid very well, whereas […] was converted with 5% of this activity by E1 and with 4% of this activity by E2.

The subject of series [5] is diacetyl reductase E2. Briefly: Stereospecificity by oxidation of D(-)- and L(+)-lactic acid, enzyme E2. In kind it is biochemical, Lactobacillus kefir. To be noted: NAD+, potassium phosphate buffer pH 7.0.
Description: as §1

The subject of series [6] is diacetyl reductase E2. The experiment in a line: Substrate spectrum and KM determination, enzyme E2. Format: biochemical, Lactobacillus kefir. On the procedure: To determine KM, the activity of both Lactobacillus enzymes was measured as a function of the substrate concentration.
Various substrates were assayed with the most highly-purified preparations of the Lc. enzymes E1 and E2. The maximum conversion rate and KM were measured for each substrate by altering the concentration.

Series [7] concerns diacetyl reductase. On the procedure:
The enzyme was incubated with various concentrations of manganese chloride in an ice bath for 1 hour. The activity of each sample was then determined and, after 15 and 30 min, the activities were redetermined by renewed NADH addition.

Series [8] can be described thus: Conversion of diacetyl by available lactate dehydrogenase. In kind it is biochemical. From the text:
But it can be stated that, when available lactate dehydrogenase is used, diacetyl is not converted.

Setting [9] is: 1 mM, incubation 5 min at 20° C.
[10] abbreviates: most highly-purified E1, read-out: Km E1.
The mark [11] stands for this setting: most highly-purified E2, read-out: Km E2.

Take `CC(=O)C(C)O` (single isomer, unassigned) [acetoin]: the “acetoin oxidation reaction (in words)” value in the series on diacetyl reductase [1] is reported as “never possible to measure”.
For `O[C@H](CS)[C@@H](O)CS` [1,4-Dithioerythritol], the “Residual activity of the Lc. enzyme” value in series [2] (setting [9]) came out at 72%.
As to `c1cnc2c(c1)ccc1cccnc12` [1,10-Phenanthroline], in series [2], the “Inhibition of the enzyme (in words)” value is “strong inhibition”. For the same compound, the “Residual activity of the Lc. enzyme” value in series [2] (setting [9]) came to 0%.
For `c1ccc(-c2ccccn2)nc1` [2,2'-Bipyridyl], the “Residual activity of the Lc. enzyme” value in series [2] (setting [9]) is 19%.
Consider `O=C(O)c1cc(SSc2ccc([N+](=O)[O-])c(C(=O)O)c2)ccc1[N+](=O)[O-]` [2,2'-Dinitro-5,5'-dithiodibenzoic acid], for which the “Inhibition of the enzyme (in words)” value in series [2] is “strong inhibition”. Moreover, in series [2] (setting [9]), the “Residual activity of the Lc. enzyme” value was 0%.
As for `CC(=O)CCC(C)=O` [2,5-Hexanedione], the “Rel. Vmax E1” value in the series with diacetyl reductase E1 [3] (most highly-purified E1) is on record as 7. Also, in the series on diacetyl reductase E1 [3] (setting [10]), the Km was 26 mM.
On to `CC(=O)CC(C)=O` [Acetylacetone, 2,4-pentanedione], for which the Km worked out at 50 mM in the series on diacetyl reductase E1 [3] (enzyme not named in b63 (E1 in Table 5), read-out: Km for acetylacetone) and 50 mM with diacetyl reductase E1 [3] (setting [10]). The “Rel. Vmax E1” value in the series with diacetyl reductase E1 [3] (most highly-purified E1) is 8.
Take `[Ba+2].[Cl-].[Cl-]` [BaCl2]: the “Residual activity of the Lc. enzyme” value in series [2] (setting [9]) was 102%.
As to `[Ca+2].[Cl-].[Cl-]` [CaCl2], the “Residual activity of the Lc. enzyme” value in series [2] (setting [9]) is given as 96%.
On the same count and under the same terms, for `[Cl-].[Cl-].[Co+2]` [CoCl2] the value was 102%.
With `[Cl][Cu][Cl]` [CuCl2], in series [2], the “Inhibition of the enzyme (in words)” value is on record as “strong inhibition”. In series [2] (setting [9]), the “Residual activity of the Lc. enzyme” value stood at 0%.
As for `C[C@@H](O)C(=O)O` [D(-)-lactic acid], the “Conversion of lactic acid by E1 (in words)” value in the series on diacetyl reductase E1 [4] is recorded as “very well”. Also, the “Conversion of lactic acid by E2 (in words)” value with diacetyl reductase E2 [5] is reported as “very well”.
As for `CC(=O)C(C)=O` [Diacetyl], in the series with diacetyl reductase E1 [3], the “diacetyl concentration of substrate saturation, E1” value was “above 1 M”. In addition, the “Rel. Vmax E1” value in the series with diacetyl reductase E1 [3] (most highly-purified E1) turned out to be 100. The “diacetyl concentration of substrate saturation, E2” value in the series with diacetyl reductase E2 [6] is “above 1 M”. The Km with diacetyl reductase E2 [6] (linear regression of Lineweaver-Burke plot, read-out: Km (E2)) came to 67 mM; in the series on diacetyl reductase E2 [6] (setting [11]), 67 mM; with diacetyl reductase E2 [6] (pH 4.25, read-out: KM for the reduction of diacetyl (E2)), 67 mM. In addition, the “Rel. Vmax E2” value in the series with diacetyl reductase E2 [6] (most highly-purified E2) is reported as 100.
In the case of `CCC(CC)(C(=O)O)C(=O)O` [Diethylmalonic acid], in series [2] (setting [9]), the “Residual activity of the Lc. enzyme” value was 100%.
Still for that read-out and setting: the figure for `O[C@H](CS)[C@H](O)CS` [Dithiothreitol] is 106%.
In the case of `O=C(O)CN(CCN(CC(=O)O)CC(=O)O)CC(=O)O` [EDTA], in series [2], the “Residual activity of the Lc. enzyme” value was 94%.
With `CCOC(=O)C(C)=O` [Ethyl pyruvate], the “Rel. Vmax E1” value in the series on diacetyl reductase E1 [3] (most highly-purified E1) is 109. The Km in the series with diacetyl reductase E1 [3] (setting [10]) turned out to be 2.4 mM; in the series on diacetyl reductase E2 [6] (setting [11]) it was 2.1 mM. The “Rel. Vmax E2” value in the series with diacetyl reductase E2 [6] (most highly-purified E2) amounted to 77.
For the compound `[Cl][Fe][Cl]` [FeCl2], the “Inhibition of the enzyme (in words)” value in series [2] is “strong inhibition”. In addition, in series [2] (setting [9]), the “Residual activity of the Lc. enzyme” value turned out to be 0%.
`[Cl][Fe]([Cl])[Cl]` [FeCl3]: the “Residual activity of the Lc. enzyme” value in series [2] (setting [9]) amounted to 82%.
Still for that read-out and setting: for `N[C@@H](CCC(=O)N[C@@H](CS)C(=O)NCC(=O)O)C(=O)O` [Gluthathione] the value was 103%.
As to `[Cl][Hg][Cl]` [HgCl2], the “Inhibition of the enzyme (in words)” value in series [2] is listed as “strong inhibition”. The “Residual activity of the Lc. enzyme” value in series [2] (setting [9]) was 0%.
Turning to `NC(=O)CI` [Iodoacetamide], the “Residual activity of the Lc. enzyme” value in series [2] (setting [9]) was 99%.
`O=C(O)CI` [Iodoacetic acid]: in series [2], the “Residual activity of the Lc. enzyme” value turned out to be 102%.
Turning to `C[C@H](O)C(=O)O` [L(-)-lactic acid, L(+)-lactic acid], the “Activity relative to that with D(-)-lactic acid, E1” value in the series with diacetyl reductase E1 [4] is listed as 5%. For the same compound, the “Activity relative to that with D(-)-lactic acid, E2” value with diacetyl reductase E2 [5] turned out to be 4%.
With `N[C@H]1CONC1=O` [L-Cycloserine], in series [2] (setting [9]), the “Residual activity of the Lc. enzyme” value was 100%.
As for `[Cl-].[Cl-].[Mg+2]` [MgCl2], the “Inhibition of the enzyme (in words)” value in series [2] is recorded as “strong inhibition”. For the same compound, the “Residual activity of the Lc. enzyme” value in series [2] (setting [9]) is listed as 0%.
With `[Cl][Mn][Cl]` [MnCl2, manganese chloride], the rel. activity came to 69% with diacetyl reductase [7] (1 mM manganese, 15 min); 0.3% with diacetyl reductase [7] (1 mM manganese, 30 min); 100% in the series on diacetyl reductase [7] (1 mM manganese, t = 0); 79% in the series on diacetyl reductase [7] (2 mM manganese, 15 min); 25% in the series with diacetyl reductase [7] (2 mM manganese, 30 min); 100% in the series on diacetyl reductase [7] (2 mM manganese, t = 0). Besides, the rel. activity with diacetyl reductase [7] (5 mM manganese, 15 min) is given as 88%; with diacetyl reductase [7] (5 mM manganese, 30 min) it was 39%; with diacetyl reductase [7] (5 mM manganese, t = 0) it was 100%; in the series on diacetyl reductase [7] (10 mM manganese, 15 min), 46%; with diacetyl reductase [7] (10 mM manganese, 30 min), 19%; with diacetyl reductase [7] (10 mM manganese, t = 0), 100%. Also, the “Effect on enzyme stability (in words)” value in the series with diacetyl reductase [7] (5 mM) is “distinctly stabilizes the enzyme”. In addition, in series [2] (setting [9]), the “Residual activity of the Lc. enzyme” value was determined as 91%.
With `CCN1C(=O)C=CC1=O` [N-Ethylmaleimide], in series [2] (setting [9]), the “Residual activity of the Lc. enzyme” value was 112%.
`NC(=O)C1=CN([C@@H]2O[C@H](COP(=O)(O)OP(=O)(O)OC[C@H]3O[C@@H](n4cnc5c(N)ncnc54)[C@H](O)[C@@H]3O)[C@@H](O)[C@H]2O)C=CC1` [NADH, nicotinamide adenine dinucleotide, reduced]: the “Rel. Vmax E1” value in the series on diacetyl reductase E1 [3] (most highly-purified E1) came out at 100. In addition, the figures for the Km in the series with diacetyl reductase E1 [3] (setting [10]) and in the series on diacetyl reductase E2 [6] (setting [11]) were 0.03 mM and 0.036 mM, respectively. In addition, the “Rel. Vmax E2” value in the series on diacetyl reductase E2 [6] (most highly-purified E2) worked out at 100.
Regarding `[Cl][Ni][Cl]` [NiCl2], the “Residual activity of the Lc. enzyme” value in series [2] (setting [9]) is listed as 100%.
Consider `O=S(=O)(F)Cc1ccccc1` [PMSF], for which the “Inhibition of the enzyme (in words)” value in series [2] was “less inhibition”. Besides, in series [2] (setting [9]), the “Residual activity of the Lc. enzyme” value was 29% and 30%.
In the case of `NNc1ccccc1` [Phenylhydrazine], the “Inhibition of the enzyme (in words)” value in series [2] was “strong inhibition”. Besides, in series [2] (setting [9]), the “Residual activity of the Lc. enzyme” value worked out at 0%.
Take `[Cl-].[Cl-].[Zn+2]` [ZnCl2]: the “Residual activity of the Lc. enzyme” value in series [2] (setting [9]) was determined as 85%.
Turning to `O=C(O)c1cc[c]([Hg+])cc1.[OH-]` [p-Hydroxymercuribenzoate], the “Residual activity of the Lc. enzyme” value in series [2] (setting [9]) worked out at 79%.
For Diacetylbenzene, the “Rel. Vmax E1” value in the series on diacetyl reductase E1 [3] (most highly-purified E1) worked out at 1.3.
With Triton X-100, the “Residual activity of the Lc. enzyme” value in series [2] (setting [9]) is on record as 113%.
lactate dehydrogenase: the “conversion of diacetyl (in words)” value in series [8] is on record as “not converted”.
